# Values joined by “and” are separate entries in the source; they are usually repeats but may differ in a detail not shown here. Identical values can stand only once.
# Assays:
# Type in all cases: physicochemical, human
# [1] = GC/MS of serum sample: number of times of freezing and thawing (Table I); set-up: key to Rate of increase or decrease / Rate of increase or decrease (first value, increase): detection intensity relative to 2 freeze-thaw cycles = 1; settings: for Rate of increase or decrease: detection intensity relative to 1 at 2 times; for Number of times when compound is affected: detection intensity changed by 30% or more vs 2 times of freezing and thawing
# Summary of the method: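 Detection intensities are ratios to the value after two freeze–thaw cycles, which is set as 1, compared against 4, 6 and 10 cycles. Analysis used methoxymation and trimethylsilylation derivatization, then GC/MS with EI ionization and multiple reaction monitoring on a BPX5 column. Serum came from blood held at room temperature and spun at 3500 rpm for 5 min.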
# [2] = GC/MS of serum sample: time from blood collection to centrifugation (Table G); settings: blood collection to centrifugation; for Rate of increase or decrease: detection intensity relative to 1 at 15 minutes; for Increase or decrease: detection intensity
# Summary of the method: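 Values express detection intensity as a ratio to the sample centrifuged 15 minutes after blood collection (taken as 1). Serum was derivatized by methoxymation and trimethylsilylation, then analysed by electron-ionization GC/MS using multiple reaction monitoring on a BPX5 column ramped from 60 to 330° C.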
# [3] = GC/MS of blood plasma sample: number of times of freezing and thawing (Table C); settings: for Increase or decrease: detection intensity, freezing and thawing 4 times vs 2 times; for Rate of increase or decrease (second value, decrease) / Rate of increase or decrease (first value, increase): different from individual to individual, relative to 1 at 2 times; for Rate of increase or decrease (second value, decrease): individuals with decrease; for Rate of increase or decrease (first value, increase): individuals with increase
# Summary of the method: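 Values express detection intensity as a ratio to the 2-cycle freeze-thaw sample (=1), compared with 4, 6 and 10 cycles. Healthy-donor EDTA plasma, cooled at ≤1 min or ≥5 min, spun at 4 °C, 3000 rpm, 15 min. Derivatised by methoxymation/trimethylsilylation; GC-MS/MS in MRM mode with electron ionization.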
# [4] = GC/MS of serum sample: time from centrifugation to isolation (Table H); set-up: key to Rate of increase or decrease / Rate of increase or decrease (first value, increase): detection intensity relative to 1 at 30 min centrifugation-to-isolation; settings: for Rate of increase or decrease: detection intensity relative to 1 at 30 minutes, after 1 hour; for Increase or decrease: detection intensity, after 1 hour vs 30 minutes
# Summary of the method: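 Values are GC/MS (EI, MRM) detection intensities of methoxymated/trimethylsilylated serum, normalised to 1 for the 30-min sample. Serum was isolated 30 min, 1 h or 6 h after room-temperature centrifugation (3500 rpm, 5 min) of blood.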
# [5] = GC/MS of blood plasma sample: time from blood collection to centrifugation (Table A); settings: for Rate of increase or decrease: detection intensity relative to 1 at 15 minutes; for Rate of increase or decrease / Increase or decrease: blood collection to centrifugation; for Rate of increase or decrease / Rate of increase or decrease (second value, decrease) / Rate of increase or decrease (first value, increase): after 4 hours; for Increase or decrease: detection intensity, after 4 hours vs 15 minutes; for Rate of increase or decrease (second value, decrease) / Rate of increase or decrease (first value, increase): different from individual to individual, relative to 1 at 15 minutes, collection to centrifugation; for Rate of increase or decrease (second value, decrease): individuals with decrease; for Rate of increase or decrease (first value, increase): individuals with increase
# Summary of the method: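 Read-out is MRM detection intensity by electron-ionization GC/MS on a BPX5 column after methoxymation and trimethylsilylation, expressed relative to a 15-minute collection-to-centrifugation interval. Plasma was prepared from EDTA blood held at 4° C and spun at 4° C, 3000 rpm for 15 minutes, then frozen.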
# [6] = GC/MS of blood plasma sample: time from blood collection to cooling of blood (Table B); set-up: key to Rate of increase or decrease / Rate of increase or decrease (first value, increase): detection intensity relative to 1 at cooling time ≤1 min; settings: for Increase or decrease: detection intensity, blood collection to cooling 5 minutes or more vs 1 minute or less; for Rate of increase or decrease (second value, decrease) / Rate of increase or decrease (first value, increase): different from individual to individual, relative to 1 at 1 minute or less, collection to cooling 5 minutes; for Rate of increase or decrease (second value, decrease): individuals with decrease; for Rate of increase or decrease (first value, increase): individuals with increase; for Rate of increase or decrease: detection intensity relative to 1 at 1 minute or less, blood collection to cooling 5 minutes
# Summary of the method: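 Blood drawn at room temperature into EDTA tubes, mixed, then cooled at 4° C. within 1 minute or less versus 5 minutes or more before centrifugation (4° C., 3000 rpm, 15 minutes). Plasma was frozen, methoxymated and trimethylsilylated, and analysed by EI GC/MS in MRM mode. Values are detection intensity relative to the ≤1 minute condition.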
# [7] = serum, GC/MS, freezing and thawing 4 times
# [8] = detection intensity, serum, GC/MS, freezing and thawing 4 times vs 2 times
# [9] = 10 times of freezing and thawing
# [10] = serum sample, GC/MS, detection intensity vs 2 times of freezing and thawing
Structure (SMILES),"Rate of increase or decrease [1, 7]","Increase or decrease [1, 8]",Increase or decrease [3],"Rate of increase or decrease (second value, decrease) ([3]; freezing and thawing 4 times)","Rate of increase or decrease (first value, increase) ([3]; freezing and thawing 4 times)",Rate of increase or decrease [4],Increase or decrease [4],Rate of increase or decrease [5],Increase or decrease [5],Increase or decrease [6],Rate of increase or decrease [6],"Rate of increase or decrease [1, 9]","Number of times when compound is affected ([1]; serum sample, GC/MS) [times]","Increase or decrease [1, 10]",Rate of increase or decrease ([2]; after 4 hours),Increase or decrease ([2]; after 4 hours vs 15 minutes),Rate of increase or decrease ([2]; after 8 hours),Increase or decrease ([2]; after 8 hours vs 15 minutes),"Rate of increase or decrease (second value, decrease) [6]","Rate of increase or decrease (first value, increase) [6]",other results
O=C(CO)[C@H](O)[C@H](O)[C@H](O)CO [Psicose],0.54,Decrease,Different from individual,0.70,1.77,0.57,Decrease,4.33,Increase,Different from individual,–,–,–,–,–,–,0.65,Decrease,0.43 and 0.27,3.24 and 1.94,"Rate of increase or decrease ([1]; serum, GC/MS, freezing and thawing 6 times): 1.30; Increase or decrease ([1]; detection intensity, serum, GC/MS, freezing and thawing 6 times vs 2 times): Increase"
"O[C@@H]1[C@@H](O)[C@@H]2OC[C@@H](O2)[C@H]1O [1,6-Anhydroglucose]",2.25,Increase,Different from individual,0.42,3.49,2.25,Increase,1.42,Increase,Decrease,0.62,–,–,–,–,–,0.62,Decrease,–,–,–
N[C@@H](CS(=O)O)C(=O)O [3-Sulfinoalanine],0.47,Decrease,Different from individual,0.58,1.59,3.07,Increase,–,Different from individual,Decrease,0.61,–,–,–,1.91,Increase,–,–,–,–,"Rate of increase or decrease (second value, decrease) [5]: 0.32; Rate of increase or decrease (first value, increase) [5]: 1.88"

# The next lines start with results.
"Rate of increase or decrease [1, 7]","Increase or decrease [1, 8]",Increase or decrease [3],"Rate of increase or decrease (second value, decrease) ([3]; freezing and thawing 4 times)","Rate of increase or decrease (first value, increase) ([3]; freezing and thawing 4 times)",Rate of increase or decrease [4],Increase or decrease [4],Rate of increase or decrease [5],Increase or decrease [5],Increase or decrease [6],Rate of increase or decrease [6],"Rate of increase or decrease [1, 9]","Number of times when compound is affected ([1]; serum sample, GC/MS) [times]","Increase or decrease [1, 10]",Rate of increase or decrease ([2]; after 4 hours),Increase or decrease ([2]; after 4 hours vs 15 minutes),Structure (SMILES),Rate of increase or decrease ([2]; after 8 hours),Increase or decrease ([2]; after 8 hours vs 15 minutes),"Rate of increase or decrease (second value, decrease) [6]","Rate of increase or decrease (first value, increase) [6]",other results
–,–,Decrease,–,–,2.12,Increase,–,Different from individual,Different from individual,–,0.64,10,Decrease,18.00,Increase,OC[C@H]1O[C@@](CO)(O[C@H]2O[C@H](CO)[C@@H](O)[C@H](O)[C@H]2O)[C@@H](O)[C@@H]1O [Sucrose],–,–,0.69,2.20,"Rate of increase or decrease ([3]; detection intensity relative to 1 at 2 times, freezing and thawing 4 times): 0.53; Rate of increase or decrease (second value, decrease) [5]: 0.69; Rate of increase or decrease (first value, increase) [5]: 2.53"
–,–,Different from individual,0.66,1.45,1.71,Increase,2.03,Increase,Decrease,0.67,9.39,10,Increase,0.51,Decrease,O=C(O)CCCCCCCC(=O)O [Azelaic acid],–,–,–,–,–

# Source: US20220146526A1, “METHOD FOR EVALUATING SAMPLE, ANALYSIS METHOD, METHOD FOR DETECTING DEGRADED SAMPLE, MARKER FOR DETECTING DEGRADED BLOOD PLASMA SAMPLE, AND MARKER FOR DETECTING DEGRADED SERUM SAMPLE” (SHIMADZU CORPORATION, priority 2019, published 2022)
